Results reported in ChEMBL document CHEMBL1156770, “X-ray crystallographic analysis of alpha-ketoheterocycle inhibitors bound to a humanized variant of fatty acid amide hydrolase” (J Med Chem, 2010).

Biological target: T1, Fatty-acid amide hydrolase 1 (Homo sapiens, UniProt O00519)
T1 sequence (O00519 whole entry): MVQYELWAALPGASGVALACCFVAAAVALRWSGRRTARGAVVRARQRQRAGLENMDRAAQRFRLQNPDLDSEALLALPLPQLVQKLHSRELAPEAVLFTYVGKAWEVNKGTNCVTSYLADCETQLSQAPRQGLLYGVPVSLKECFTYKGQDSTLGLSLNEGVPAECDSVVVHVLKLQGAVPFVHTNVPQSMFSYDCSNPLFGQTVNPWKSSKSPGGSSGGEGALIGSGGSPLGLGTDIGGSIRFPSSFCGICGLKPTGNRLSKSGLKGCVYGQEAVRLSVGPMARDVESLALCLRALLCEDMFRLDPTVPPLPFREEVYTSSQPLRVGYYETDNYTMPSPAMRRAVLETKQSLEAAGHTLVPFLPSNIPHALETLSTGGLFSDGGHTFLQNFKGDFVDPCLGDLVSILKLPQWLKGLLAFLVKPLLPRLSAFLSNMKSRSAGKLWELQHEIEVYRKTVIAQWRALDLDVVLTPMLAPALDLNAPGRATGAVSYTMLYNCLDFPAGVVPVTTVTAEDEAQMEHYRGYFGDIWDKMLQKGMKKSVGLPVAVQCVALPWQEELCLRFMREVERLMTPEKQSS
Assay: Inhibition of FAAH

Ki: 3 nM
SMILES: CCCCCCCC/C=C\CCCCCCCC(=O)c1ncc(-c2ccccn2)o1
